# According to patent publication US20120202690A1, “HERBICIDAL COMPOUNDS” (SYNGENTA LIMITED, priority 2009, published 2012):
# Key:
# Setaria faberi (SETFA) [1] = test: Pre-emergence biological efficacy, glasshouse, 1000 g/ha, evaluated after 13 days (100=total damage to plant; 0=no damage to plant); assay type: in vivo; conditions: Setaria faberi, 312 h, rate 1,000 g/ha, read-out: Percentage damage caused to weed species, pre-emergence, SETFA
# Outline: (§1)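 Test species are sown into pots of standard soil. Plants then grow in the glasshouse under controlled conditions (24/16° C. day/night, 14 hours light, 65% humidity) and receive water twice a day.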
# [2] = tested on: Amaranthus retroflexus (AMARE); test: as above; assay type: in vivo; conditions: Amaranthus retroflexus, 312 h, rate 1,000 g/ha, read-out: Percentage damage caused to weed species, pre-emergence, AMARE
# Outline: as §1
# [3] = tested on: Echinochloa crus-galli (ECHCG); test: as above; assay type: in vivo; conditions: Echinochloa crus-galli, 312 h, rate 1,000 g/ha, read-out: Percentage damage caused to weed species, pre-emergence, ECHCG
# Outline: as §1
# Solanum nigrum (SOLNI) [4] = test: as above; assay type: in vivo; conditions: Solanum nigrum, 312 h, rate 1,000 g/ha, read-out: Percentage damage caused to weed species, pre-emergence, SOLNI
# Outline: as §1
# [5] = tested on: Alopecurus myosuroides (ALOMY); test: as above; assay type: in vivo; conditions: Alopecurus myosuroides, 312 h, rate 1,000 g/ha, read-out: Percentage damage caused to weed species, pre-emergence, ALOMY
# Outline: as §1
# [6] = tested on: Ipomoea hederaceae (IPOHE); test: as above; assay type: in vivo; conditions: Ipomoea, 312 h, rate 1,000 g/ha, read-out: Percentage damage caused to weed species, pre-emergence, IPOHE
# Outline: as §1
# Setaria faberi (SETFA) [7] = test: Post-emergence biological efficacy, glasshouse, 500 or 1000 g/ha, evaluated after 13 days (100=total damage to plant; 0=no damage to plant); assay type: in vivo; conditions: Setaria faberi, 312 h, rate 1,000 g/ha, read-out: Percentage damage caused to weed species, post-emergence, SETFA
# Outline: (§2)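 Plants raised from seed in pots of standard soil receive the spray after emergence. They then grow on under controlled glasshouse conditions (24/16° C. day/night, 14 hours light, 65% humidity) and are watered twice a day.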
# [8] = tested on: Amaranthus retroflexus (AMARE); test: as above; assay type: in vivo; conditions: Amaranthus retroflexus, 312 h, rate 1,000 g/ha, read-out: Percentage damage caused to weed species, post-emergence, AMARE
# Outline: as §2
# Solanum nigrum (SOLNI) [9] = test: as above; assay type: in vivo; conditions: Solanum nigrum, 312 h, rate 1,000 g/ha, read-out: Percentage damage caused to weed species, post-emergence, SOLNI
# Outline: as §2
# [10] = tested on: Alopecurus myosuroides (ALOMY); test: as above; assay type: in vivo; conditions: Alopecurus myosuroides, 312 h, rate 1,000 g/ha, read-out: Percentage damage caused to weed species, post-emergence, ALOMY
# Outline: as §2
# [11] = tested on: Ipomoea hederaceae (IPOHE); test: as above; assay type: in vivo; conditions: Ipomoea, 312 h, rate 1,000 g/ha, read-out: Percentage damage caused to weed species, post-emergence, IPOHE
# Outline: as §2
# [12] = tested on: Echinochloa crusgaffi (ECHCG); test: as above; assay type: in vivo; conditions: Echinochloa, 312 h, rate 1,000 g/ha, read-out: Percentage damage caused to weed species, post-emergence, ECHCG
# Outline: as §2
SMILES,pest or weed control at 1000 g/ha (Setaria faberi (SETFA) [1]) [%],pest or weed control at 1000 g/ha [2] [%],pest or weed control at 1000 g/ha [3] [%],pest or weed control at 1000 g/ha (Solanum nigrum (SOLNI) [4]) [%],pest or weed control at 1000 g/ha [5] [%],pest or weed control at 1000 g/ha [6] [%],pest or weed control at 1000 g/ha (Setaria faberi (SETFA) [7]) [%],pest or weed control at 1000 g/ha [8] [%],pest or weed control at 1000 g/ha (Solanum nigrum (SOLNI) [9]) [%],pest or weed control at 1000 g/ha [10] [%],pest or weed control at 1000 g/ha [11] [%],pest or weed control at 1000 g/ha [12] [%],melting point [°C]
"COc1c(Cl)ccc(-c2nc(C(=O)O)c3c(n2)N(C(C)C)CCN3C(C)C)c1F [Compound 93-165, 4-Carboxy-2-(4-chloro-2-fluoro-3-methoxyphenyl)-5,8-diisopropyl-5,6,7,8-tetrahydropteridine]",0,0,0,0,0,10,30,20,30,10,20,20,–
"COC(=O)c1nc(-c2ccc(Cl)c(OC)c2F)nc2c1N(C(C)C)CCN2C(C)C [Compound 93-166, 2-(4-Chloro-2-fluoro-3-methoxyphenyl)-5,8-diisopropyl-4-methoxy-carbonyl-5,6,7,8-tetrahydropteridine]",0,0,0,0,0,0,30,0,10,20,10,10,135
"COC(=O)c1nc(-c2ccc(Cl)c(OC)c2F)nc2c1NCCN2Cc1ccccc1 [Compound 95-162, 8-benzyl-2-(4-chloro-2-fluoro-3-methoxyphenyl)-4-methoxycarbonyl-5,6,7,8-tetrahydropteridine]",0,0,0,0,10,40,0,70,40,10,30,0,–
"COC(=O)c1nc(-c2ccc(Cl)c(OC)c2F)nc2c1OCCN2C [Compound 106-74, 2-(4-Chloro-2-fluoro-3-methoxyphenyl)-4-methoxycarbonyl-8-methyl-7,8-dihydro-6H-pyrimido[5,4-b][1,4]oxazine]",0,0,0,0,0,0,0,0,0,0,0,0,–
"COC(=O)c1nc(-c2ccc(Cl)c(OC)c2F)nc2c1Nc1ccccc1N2 [Compound 119-168, 2-(4-chloro-2-fluoro-3-methoxyphenyl)-4-methoxycarbonyl-5,10-dihydro-benzo[g]pteridine]",0,0,0,0,0,0,0,10,30,0,40,0,–
"COC(=O)c1nc(-c2ccc(Cl)c(OC)c2F)nc2nc3ccccc3nc12 [Compound 125-76, 2-(4-chloro-2-fluoro-3-methoxyphenyl)-4-methoxycarbonyl-benzo[g]pteridine]",20,80,20,70,10,60,80,100,90,10,80,70,–
